Reference: US20070212690A1, “Folate Antagonists Having Improved Selectivity” (Serenex, Inc., priority 2003, published 2007)

Key:
DHFR = assay: Elution of purine-binding proteins from ATP-Sepharose column with the compound; parameters: species or system porcine liver, porcine lidney, HeLa cells, whole mice; settings: lysate on ATP-Sepharose; methotrexate 10 nM to 500 μM; SDS gel, silver stain, MALDI
Protocol: (§1) Molecular targets for the folate antagonist methotrexate were identified as follows. Cell or tissue lysates were produced from porcine liver, porcine lidney, HeLa cells, and whole mice. This lysate was run over an ATP-Sepharose™ column in order to extract all purine-binding proteins. […] The ATP-Sepharose™ washed several times, and then eluted with methotrexate at concentrations ranging from 10 nM to 500 μM to identify proteins that bound to this compound. The eluted fractions were run on a 1-dimensional SDS polyacrylamide gel. The eluted proteins were then stained with silver stain, cut out of the gel, and identified using matrix-assisted laser deionization/ionization (MALDI). […] The experiment was also repeated using folate to elute the purine binding proteome from the ATP-Sepharose column.

glutathione synthase = assay: as above; parameters: species or system porcine liver, porcine lidney, HeLa cells, whole mice; settings: lysate on ATP-Sepharose; methotrexate 10 nM to 500 μM; SDS gel, silver stain, MALDI
Protocol: as §1

pyruvate carboxylase = assay: as above; parameters: species or system porcine liver, porcine lidney, HeLa cells, whole mice; settings: lysate on ATP-Sepharose; methotrexate 10 nM to 500 μM; SDS gel, silver stain, MALDI
Protocol: as §1

[1] = test system: propionyl-CoA carboxylase; assay: as above; parameters: species or system porcine liver, porcine lidney, HeLa cells, whole mice; settings: lysate on ATP-Sepharose; methotrexate 10 nM to 500 μM; SDS gel, silver stain, MALDI
Protocol: as §1

biotin carboxylase = assay: as above; parameters: species or system porcine liver, porcine lidney, HeLa cells, whole mice; settings: lysate on ATP-Sepharose; methotrexate 10 nM to 500 μM; SDS gel, silver stain, MALDI
Protocol: (§2) Molecular targets for the folate antagonist methotrexate were identified as follows. Cell or tissue lysates were produced from porcine liver, porcine lidney, HeLa cells, and whole mice. This lysate was run over an ATP-Sepharose™ column in order to extract all purine-binding proteins. […] The ATP-Sepharose™ washed several times, and then eluted with methotrexate at concentrations ranging from 10 nM to 500 μM to identify proteins that bound to this compound. The eluted fractions were run on a 1-dimensional SDS polyacrylamide gel. The eluted proteins were then stained with silver stain, cut out of the gel, and identified using matrix-assisted laser deionization/ionization (MALDI).

acetyl-CoA carboxylase = assay: as above; parameters: species or system porcine liver, porcine lidney, HeLa cells, whole mice; settings: lysate on ATP-Sepharose; methotrexate 10 nM to 500 μM; SDS gel, silver stain, MALDI
Protocol: as §2

[2] = test system: methylcrotonyl-CoA carboxylase; assay: as above; parameters: species or system porcine liver, porcine lidney, HeLa cells, whole mice; settings: lysate on ATP-Sepharose; methotrexate 10 nM to 500 μM; SDS gel, silver stain, MALDI
Protocol: as §2

[3] = test system: the same proteins that were eluted from ATP-Sepharose with methotrexate; assay: Elution of lysate proteins from methotrexate covalently linked to agarose; format: binding, porcine liver, porcine lidney, HeLa cells, whole mice; settings: lysates applied to methotrexate covalently linked to agarose
Protocol: as §2

GART = assay: Elution of purine-binding proteins from ATP-Sepharose column with the compound; settings: lysate on ATP-Sepharose; methotrexate 10 nM to 500 μM; SDS gel, silver stain, MALDI
Protocol: as §1

SMILES: CN(Cc1cnc2nc(N)nc(N)c2n1)c1ccc(C(=O)N[C@@H](CCC(=O)O)C(=O)O)cc1 [methotrexate]
- DHFR eluted from ATP-Sepharose by the compound (indicates binding) (DHFR): eluted
- glutathione synthase eluted from ATP-Sepharose by the compound (indicates binding) (glutathione synthase): eluted
- pyruvate carboxylase eluted from ATP-Sepharose by the compound (indicates binding) (pyruvate carboxylase): eluted
- propionyl-CoA carboxylase eluted from ATP-Sepharose by the compound (indicates binding) [1]: eluted
- biotin carboxylase eluted from ATP-Sepharose by the compound (indicates binding) (biotin carboxylase): eluted
- acetyl-CoA carboxylase eluted from ATP-Sepharose by the compound (indicates binding) (acetyl-CoA carboxylase): eluted
- methylcrotonyl-CoA carboxylase eluted from ATP-Sepharose by the compound (indicates binding) [2]: eluted
- same proteins eluted from methotrexate-agarose with methotrexate (confirmation of targets) [3]: also eluted from methotrexate agarose with methotrexate
- GART eluted from ATP-Sepharose by the compound (indicates binding) (GART): eluted
